PMC10924921, “Mi-2β promotes immune evasion in melanoma by activating EZH2 methylation” (Nature Communications, 2024)

Columns and labels:
Assay in all cases: biochemical
Parameters in all cases: KINOMEscan active-site competition binding panel (468 kinase assays), per cent of control at 1000 nM
Settings in all cases: KINOMEscan per cent of control (binding competition); read-out: Percent Control
VEGFR2 = molecular target: T1, VEGFR2 (Homo sapiens, UniProt P35968)
T1 construct: gene KDR
Source text: (§1) Figure S7 / Percent Control

[1] = molecular target: T2, ABL1(T315I)-phosphorylated (Homo sapiens, UniProt P00519, T315I)
T2 construct: phosphorylated
Source text: as §1

OSR1 = molecular target: T3, OSR1 (Homo sapiens, UniProt O95747)
T3 construct: gene OXSR1
Source text: as §1

PKAC-beta = molecular target: T4, PKAC-beta (Homo sapiens, UniProt P22694)
T4 construct: gene PRKACB
Source text: as §1

MKK7 = molecular target: T5, MKK7 (Homo sapiens, UniProt O14733)
T5 construct: gene MAP2K7
T5 sequence (O14733 whole entry): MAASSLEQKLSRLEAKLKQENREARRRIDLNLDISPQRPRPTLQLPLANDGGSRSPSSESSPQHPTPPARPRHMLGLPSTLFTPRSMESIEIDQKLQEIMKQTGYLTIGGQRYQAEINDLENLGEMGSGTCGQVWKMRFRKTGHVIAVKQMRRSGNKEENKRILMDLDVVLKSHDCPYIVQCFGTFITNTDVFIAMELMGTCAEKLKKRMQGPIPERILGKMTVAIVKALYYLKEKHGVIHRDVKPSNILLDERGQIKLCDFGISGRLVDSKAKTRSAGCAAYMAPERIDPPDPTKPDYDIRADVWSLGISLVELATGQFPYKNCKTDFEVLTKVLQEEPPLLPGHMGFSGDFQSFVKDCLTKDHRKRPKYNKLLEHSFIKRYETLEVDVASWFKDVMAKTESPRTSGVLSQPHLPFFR
Source text: as §1

MST1 = molecular target: T6, MST1 (Homo sapiens, UniProt Q13043)
T6 construct: gene STK4
T6 sequence (Q13043 whole entry): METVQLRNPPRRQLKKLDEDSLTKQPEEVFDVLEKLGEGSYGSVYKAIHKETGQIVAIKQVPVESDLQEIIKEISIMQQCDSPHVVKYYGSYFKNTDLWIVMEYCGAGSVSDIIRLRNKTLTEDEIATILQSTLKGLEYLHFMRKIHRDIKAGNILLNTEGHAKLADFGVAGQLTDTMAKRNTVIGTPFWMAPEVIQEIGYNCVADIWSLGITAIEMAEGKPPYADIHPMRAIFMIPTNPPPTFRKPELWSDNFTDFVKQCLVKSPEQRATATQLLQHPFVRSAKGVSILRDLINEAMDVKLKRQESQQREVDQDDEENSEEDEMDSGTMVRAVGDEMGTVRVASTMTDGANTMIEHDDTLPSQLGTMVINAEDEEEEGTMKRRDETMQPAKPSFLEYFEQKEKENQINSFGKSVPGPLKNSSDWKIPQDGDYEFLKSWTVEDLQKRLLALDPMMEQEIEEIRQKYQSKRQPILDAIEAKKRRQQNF
Source text: as §1

EPHA6 = EPHA6 (Homo sapiens, UniProt Q9UF33)
EPHA6, sequence (Q9UF33 whole entry): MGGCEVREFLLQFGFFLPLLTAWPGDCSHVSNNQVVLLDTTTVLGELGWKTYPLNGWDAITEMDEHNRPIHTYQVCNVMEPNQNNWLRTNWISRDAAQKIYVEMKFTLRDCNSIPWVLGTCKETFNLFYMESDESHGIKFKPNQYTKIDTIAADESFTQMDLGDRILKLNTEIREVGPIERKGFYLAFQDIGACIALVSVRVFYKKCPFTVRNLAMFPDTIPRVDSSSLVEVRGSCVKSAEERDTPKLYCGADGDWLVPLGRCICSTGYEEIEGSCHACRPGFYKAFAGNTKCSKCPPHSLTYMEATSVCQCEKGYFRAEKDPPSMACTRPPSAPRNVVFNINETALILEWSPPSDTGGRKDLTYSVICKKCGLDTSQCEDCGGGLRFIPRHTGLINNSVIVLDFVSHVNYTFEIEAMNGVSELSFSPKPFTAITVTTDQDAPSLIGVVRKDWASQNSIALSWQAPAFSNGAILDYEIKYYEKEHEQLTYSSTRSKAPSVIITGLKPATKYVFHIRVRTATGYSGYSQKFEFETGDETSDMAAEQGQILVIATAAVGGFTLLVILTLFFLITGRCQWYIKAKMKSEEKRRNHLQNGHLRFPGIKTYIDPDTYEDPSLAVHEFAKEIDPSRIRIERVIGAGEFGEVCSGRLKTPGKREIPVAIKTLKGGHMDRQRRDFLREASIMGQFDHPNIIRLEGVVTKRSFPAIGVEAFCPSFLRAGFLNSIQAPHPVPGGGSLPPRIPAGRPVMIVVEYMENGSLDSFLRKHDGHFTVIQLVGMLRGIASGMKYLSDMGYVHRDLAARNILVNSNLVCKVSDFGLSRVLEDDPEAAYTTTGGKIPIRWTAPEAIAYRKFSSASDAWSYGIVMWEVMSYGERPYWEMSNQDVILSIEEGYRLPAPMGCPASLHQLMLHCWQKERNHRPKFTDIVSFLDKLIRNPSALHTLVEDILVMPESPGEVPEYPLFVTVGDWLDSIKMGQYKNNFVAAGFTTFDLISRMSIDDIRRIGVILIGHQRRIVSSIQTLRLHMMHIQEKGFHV
Source text: as §1

FGFR3 = FGFR3 (Homo sapiens, UniProt P22607)
Source text: as §1

ROS1 = ROS1 (Homo sapiens, UniProt P08922)
Source text: as §1

FLT3(N841I) = FLT3(N841I) (Homo sapiens, UniProt P36888, N841I)
Source text: as §1

MLCK = molecular target: T7, MLCK (Homo sapiens, UniProt Q32MK0)
T7 construct: gene MYLK3
Source text: as §1

CDK5 = CDK5 (Homo sapiens, UniProt Q00535)
CDK5, sequence (Q00535 whole entry): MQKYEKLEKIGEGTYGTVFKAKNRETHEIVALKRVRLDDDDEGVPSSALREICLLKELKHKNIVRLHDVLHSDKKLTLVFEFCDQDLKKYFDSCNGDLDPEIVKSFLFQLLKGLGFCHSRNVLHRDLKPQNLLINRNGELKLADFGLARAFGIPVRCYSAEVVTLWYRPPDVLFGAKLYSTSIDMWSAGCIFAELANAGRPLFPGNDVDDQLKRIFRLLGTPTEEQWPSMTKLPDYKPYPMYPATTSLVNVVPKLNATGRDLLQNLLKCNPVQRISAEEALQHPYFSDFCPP
Source text: as §1

PRKD1 = PRKD1 (Homo sapiens, UniProt Q15139)
PRKD1, sequence (Q15139 whole entry): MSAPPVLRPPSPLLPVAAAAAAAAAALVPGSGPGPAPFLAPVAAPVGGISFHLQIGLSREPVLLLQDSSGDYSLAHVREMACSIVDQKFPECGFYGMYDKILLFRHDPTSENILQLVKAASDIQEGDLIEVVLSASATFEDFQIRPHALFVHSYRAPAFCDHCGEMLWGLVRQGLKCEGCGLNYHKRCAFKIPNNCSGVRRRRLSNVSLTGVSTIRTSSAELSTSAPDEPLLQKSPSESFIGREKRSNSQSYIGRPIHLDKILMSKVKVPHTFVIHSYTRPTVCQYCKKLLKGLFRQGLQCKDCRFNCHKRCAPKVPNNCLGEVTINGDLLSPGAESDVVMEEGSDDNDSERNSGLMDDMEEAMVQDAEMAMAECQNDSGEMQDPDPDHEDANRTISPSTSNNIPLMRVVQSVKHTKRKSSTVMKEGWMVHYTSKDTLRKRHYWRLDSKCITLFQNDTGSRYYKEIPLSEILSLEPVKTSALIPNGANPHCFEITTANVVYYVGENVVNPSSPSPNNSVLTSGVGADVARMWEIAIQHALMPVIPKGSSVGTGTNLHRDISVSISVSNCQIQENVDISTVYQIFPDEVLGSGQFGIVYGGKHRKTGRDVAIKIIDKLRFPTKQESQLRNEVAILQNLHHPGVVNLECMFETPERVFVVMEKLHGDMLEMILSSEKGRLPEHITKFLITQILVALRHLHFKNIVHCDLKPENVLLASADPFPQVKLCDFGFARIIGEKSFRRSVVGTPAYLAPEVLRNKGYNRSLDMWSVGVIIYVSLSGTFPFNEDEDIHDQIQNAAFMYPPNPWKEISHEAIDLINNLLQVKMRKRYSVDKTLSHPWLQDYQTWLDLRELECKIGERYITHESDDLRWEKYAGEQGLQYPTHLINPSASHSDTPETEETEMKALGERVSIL
Source text: as §1

TLK2 = TLK2 (Homo sapiens, UniProt Q86UE8)
Source text: as §1

[2] = molecular target: T8, JAK1(JH1domain-catalytic) (Homo sapiens, UniProt P23458)
T8 construct: JH1domain-catalytic
Source text: as §1

DLK = molecular target: T9, DLK (Homo sapiens, UniProt Q12852)
T9 construct: gene MAP3K12
Source text: as §1

PIP5K1A = PIP5K1A (Homo sapiens, UniProt Q99755)
PIP5K1A, sequence (Q99755 whole entry): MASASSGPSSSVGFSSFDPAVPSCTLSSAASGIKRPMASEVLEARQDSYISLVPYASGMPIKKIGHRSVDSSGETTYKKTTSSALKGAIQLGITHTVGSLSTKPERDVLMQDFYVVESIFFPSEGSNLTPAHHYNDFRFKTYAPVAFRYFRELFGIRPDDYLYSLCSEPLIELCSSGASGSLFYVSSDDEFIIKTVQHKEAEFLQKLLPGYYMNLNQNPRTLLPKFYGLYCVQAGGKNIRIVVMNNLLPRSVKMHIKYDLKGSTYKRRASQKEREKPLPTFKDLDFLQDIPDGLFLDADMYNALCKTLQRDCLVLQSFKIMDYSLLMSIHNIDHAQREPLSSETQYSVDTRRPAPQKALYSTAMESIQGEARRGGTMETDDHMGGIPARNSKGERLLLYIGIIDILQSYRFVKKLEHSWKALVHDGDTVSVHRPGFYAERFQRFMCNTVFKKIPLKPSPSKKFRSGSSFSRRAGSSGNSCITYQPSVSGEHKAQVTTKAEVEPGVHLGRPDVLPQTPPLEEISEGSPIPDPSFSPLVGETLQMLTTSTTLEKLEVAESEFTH
Source text: as §1

[3] = molecular target: T10, RPS6KA4(Kin.Dom.1-N-terminal) (Homo sapiens, UniProt O75676)
T10 construct: Kin.Dom.1-N-terminal
Source text: as §1

ULK1 = ULK1 (Homo sapiens, UniProt O75385)
Source text: as §1

DYRK1B = DYRK1B (Homo sapiens, UniProt Q9Y463)
Source text: as §1

GSK3B = GSK3B (Homo sapiens, UniProt P49841)
Source text: as §1

RET(V804L) = RET(V804L) (Homo sapiens, UniProt P07949, V804L)
Source text: as §1

FGFR2 = FGFR2 (Homo sapiens, UniProt P21802)
Source text: as §1

FLT3(D835H) = FLT3(D835H) (Homo sapiens, UniProt P36888, D835H)
Source text: as §1

T1 sequence (P35968 whole entry): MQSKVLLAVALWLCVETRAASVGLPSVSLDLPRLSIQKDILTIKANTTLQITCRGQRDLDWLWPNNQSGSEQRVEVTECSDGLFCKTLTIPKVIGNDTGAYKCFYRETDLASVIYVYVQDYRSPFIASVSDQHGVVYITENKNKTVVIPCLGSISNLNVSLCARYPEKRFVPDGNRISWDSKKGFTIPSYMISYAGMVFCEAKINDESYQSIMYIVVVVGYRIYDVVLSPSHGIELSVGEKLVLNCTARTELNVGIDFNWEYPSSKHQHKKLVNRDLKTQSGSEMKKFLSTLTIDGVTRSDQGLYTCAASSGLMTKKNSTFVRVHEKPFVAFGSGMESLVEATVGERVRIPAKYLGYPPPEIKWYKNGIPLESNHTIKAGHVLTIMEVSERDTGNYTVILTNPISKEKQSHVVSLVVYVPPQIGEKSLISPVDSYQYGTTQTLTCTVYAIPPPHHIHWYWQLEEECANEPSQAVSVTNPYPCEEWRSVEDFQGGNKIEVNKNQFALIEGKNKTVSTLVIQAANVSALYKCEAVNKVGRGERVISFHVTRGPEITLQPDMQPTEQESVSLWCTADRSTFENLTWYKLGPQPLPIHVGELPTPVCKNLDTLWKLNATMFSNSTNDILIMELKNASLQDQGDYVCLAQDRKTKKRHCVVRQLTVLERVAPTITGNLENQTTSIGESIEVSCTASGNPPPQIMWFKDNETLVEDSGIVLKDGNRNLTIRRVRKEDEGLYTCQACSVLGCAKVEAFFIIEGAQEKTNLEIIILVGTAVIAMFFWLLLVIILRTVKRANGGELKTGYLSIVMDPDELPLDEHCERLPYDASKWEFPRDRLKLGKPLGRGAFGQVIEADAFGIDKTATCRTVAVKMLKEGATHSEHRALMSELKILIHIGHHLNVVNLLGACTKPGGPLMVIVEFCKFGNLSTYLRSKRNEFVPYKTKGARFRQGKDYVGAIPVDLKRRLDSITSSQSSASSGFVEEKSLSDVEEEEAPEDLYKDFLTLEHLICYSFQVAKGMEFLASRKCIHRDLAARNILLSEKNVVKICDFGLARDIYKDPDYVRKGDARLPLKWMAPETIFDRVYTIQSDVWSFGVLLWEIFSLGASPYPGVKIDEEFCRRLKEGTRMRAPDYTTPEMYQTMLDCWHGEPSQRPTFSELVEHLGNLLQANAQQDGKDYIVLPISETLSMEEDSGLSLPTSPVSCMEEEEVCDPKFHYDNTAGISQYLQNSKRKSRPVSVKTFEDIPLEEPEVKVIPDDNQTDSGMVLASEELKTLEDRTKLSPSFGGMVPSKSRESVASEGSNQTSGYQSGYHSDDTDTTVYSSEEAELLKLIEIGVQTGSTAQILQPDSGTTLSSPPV

Question: Which remaining binding at 1 µM (VEGFR2) does the source give for `Cn1c(=O)[nH]c2ccc(-c3cccc(C(=O)NC4CCn5ccnc5C4)c3)cc21` (stereo not drawn) [Z36-MP5] here?
Answer: 56%

Question: What about the remaining binding at 1 µM [1] of the same compound?
Answer: 49%

Question: What about the remaining binding at 1 µM (OSR1) of the same compound?
Answer: 73%

Question: And the remaining binding at 1 µM (PKAC-beta)?
Answer: 96%

Question: What about the remaining binding at 1 µM (MKK7) of the same compound?
Answer: 72%

Question: And the remaining binding at 1 µM (MST1)?
Answer: 84%

Question: What about the remaining binding at 1 µM (EPHA6) of the same compound?
Answer: 69%

Question: And the remaining binding at 1 µM (FGFR3)?
Answer: 84%

Question: And the remaining binding at 1 µM (ROS1)?
Answer: 51%

Question: What about the remaining binding at 1 µM (FLT3(N841I)) of the same compound?
Answer: 63%

Question: And the remaining binding at 1 µM (MLCK)?
Answer: 91%

Question: What about the remaining binding at 1 µM (CDK5) of the same compound?
Answer: 55%

Question: What about the remaining binding at 1 µM (PRKD1) of the same compound?
Answer: 100%

Question: And the remaining binding at 1 µM (TLK2)?
Answer: 53%

Question: What about the remaining binding at 1 µM [2] of the same compound?
Answer: 96%

Question: And the remaining binding at 1 µM (DLK)?
Answer: 62%

Question: What about the remaining binding at 1 µM (PIP5K1A) of the same compound?
Answer: 57%

Question: And the remaining binding at 1 µM [3]?
Answer: 90%

Question: What about the remaining binding at 1 µM (ULK1) of the same compound?
Answer: 51%

Question: What about the remaining binding at 1 µM (DYRK1B) of the same compound?
Answer: 86%

Question: And the remaining binding at 1 µM (GSK3B)?
Answer: 81%

Question: What about the remaining binding at 1 µM (RET(V804L)) of the same compound?
Answer: 75%

Question: What about the remaining binding at 1 µM (FGFR2) of the same compound?
Answer: 37%

Question: What about the remaining binding at 1 µM (FLT3(D835H)) of the same compound?
Answer: 81%
